These results are taken from US10517867B2, “Posaconazole derivative, pharmaceutical composition and use thereof” (priority 2016, dated 2019).

Like-named read-outs stand apart in the source and are kept apart here. Some results are limits rather than exact numbers.

Broadly, the solubility is the dissolved amount per volume that the medium holds. Read a low solubility as a poorly soluble substance.

Series [1] relates to Candida albicans ATCC10231. The series can be described thus: Candida albicans vaginitis in mice, intragastric administration. The conditions noted are these: logarithm of the CFU values, mean ± SD of 20 mice; for vaginal fungal load of mice, day 15: 20 mg/kg intragastric once a day for 15 days; for vaginal fungal load of mice, day 3 / vaginal fungal load of mice, day 5 / vaginal fungal load of mice, day 7 / vaginal fungal load of mice, day 11: 20 mg/kg intragastric once a day. The class given is in vivo, KM mice.

Series [2] deals with Candida albicans ATCC10231. The series can be described thus: Candida albicans vaginitis in mice, intravenous administration. The conditions noted are these: logarithm of the CFU values, mean ± SD of 20 mice; for vaginal fungal load of mice, day 5: 20 mg/kg tail vein once a day for 5 days, day 5 after infection; for vaginal fungal load of mice, day 3: 20 mg/kg tail vein once a day, day 3 after infection.
Method: KM mice, weighing 18-22 g, female, provided by Hubei Experimental Animal Center.
The standard strain of Candida albicans was purchased from the American Type Culture
Collection, strain number ATCC10231.
Prior to being infected with Candida albicans, animals in each group were given subcutaneous injections of 0.5 ml of estradiol benzoate (2 mg/ml) for 6 consecutive days to allow them to enter the estrus phase. Injections were continued once every 2 days until the completion of the experiment. After 6 days, 20 μl of Candida albicans solution in a concentration of 3.5×10^6 CFU/ml was injected vaginally into each mouse, causing a vaginal infection model. From the first day after infection, each group of animals was given 20 mg/kg of the corresponding drug (calculated as posaconazole) in the tail vein at an administration volume of 0.1 ml/10 g once a day for 5 consecutive days. The model group was given an equal volume of solvent (physiological saline). On the 3rd and 5th days after infection, the vagina of mice were wiped with sterile cotton swabs. The cotton swabs were soaked in 0.9 ml physiological saline. The fungal solutions were diluted to 10-fold increments to give a series of concentrations, and then 100 μl of each concentration of the bacteria solutions was taken and inoculated on Sabourand's dextrose agar solid medium containing 0.5% (W/V) chloramphenicol to observe the fungal load of Candida albicans on the vagina.

Series [3] concerns Aspergillus Fumigutus (AF) strains. The series can be described thus: Aspergillus fumigatus keratitis in rats, intravenous administration. The conditions noted are these: 10 mg/kg tail vein once daily for 5 days; mean ± SD of 10 rats.
A short description of series [4]: Determination of solubility in deionized water (HPLC, external standard). The following applies: 25 °C, water, thermodynamic from solid.
The subject of series [5] is Aspergillus fumigatus AF293. The experiment in a line: Lung Aspergillus fumigatus infection in immunosuppressed mice, intravenous administration. The following applies: for lung fungal load: mouse lung tissue, seven days later, mean ± SD; for responders at 20 mg/kg: Aspergillus fumigatus, AF293, in Mus musculus, iv.
Method: ICR male mice were injected intraperitoneally with cyclophosphamide 150 mg/kg and injected subcutaneously with dexamethasone 150 mg/kg for 10 consecutive days. At the same time, the blood was taken to measure the changes of peripheral white blood cells and neutrophils, and mice with neutrophils consistently lower than 100/μl were selected as successfully immunosuppressed mice. Immediately after the last injection, the mice were anesthetized with ethyl ether, and mice were transferred from the initial state of excitement to inhibition. After their bodies were relaxed, the mice were immediately taken. Left hand was used to grasp the mouse to make it stand upright, the middle finger pressed the mouth so that it could breath only with the nose, and the ring finger gently pressed the abdomen to move the diaphragm muscle upward. 30 μl of conidia suspension (Aspergillus fumigatus AF293, 3×10^6 conidia) was sent to the nostrils of the anesthetized mice by a micropipette to allow spontaneous inhalation. After the mouse returned to normal breathing, it was returned to the cage. […] The death of the mice was observed and the survival time was recorded. Seven days later, the mice were sacrificed and their lung tissues were taken to observe the fungal loads of Aspergillus fumigatus in the lungs of the mice.
For series [6], the system named is Aspergillus fumigatus AF293. The series can be described thus: Lung Aspergillus fumigatus infection in immunosuppressed mice, intragastric administration. The following applies: mouse lung tissue, seven days later, 20 mg/kg intragastric once daily for 5 days, mean ± SD.
Method: Aspergillus fumigatus AF293, from the Guangdong Provincial Microbial Culture Collection Center.
ICR male mice were injected intraperitoneally with cyclophosphamide 150 mg/kg and injected subcutaneously with dexamethasone 150 mg/kg for 10 consecutive days. At the same time, the blood was taken to measure the changes of peripheral white blood cells and neutrophils, and mice with neutrophils consistently lower than 100/μl were selected as successfully immunosuppressed mice. Immediately after the last injection, the mice were anesthetized with ethyl ether, and mice were transferred from the initial state of excitement to inhibition. After their bodies were relaxed, the mice were immediately taken. Left hand was used to grasp the mouse to make it stand upright, the middle finger pressed the mouth so that it could breath only with the nose, and the ring finger gently pressed the abdomen to move the diaphragm muscle upward. 30 μl of conidia suspension (Aspergillus fumigatus AF293, 3×10^6 conidia) was sent to the nostrils of the anesthetized mice by a micropipette to allow spontaneous inhalation. After the mouse returned to normal breathing, it was returned to the cage. […] Seven days later, the mice were sacrificed and their lung tissues were taken to observe the fungal loads of Aspergillus fumigatus in the lungs of the mice.
Series [7] deals with Candida albicans ATCC10231. The experiment in a line: Systemic fungal infection in mice, intragastric administration. The class given is in vivo, ICR mice. The following applies: Candida albicans, ATCC10231, po.
The mark [8] stands for this setting: 24 h, read-out: survival rate of mice, day 1, 20 mg/kg intragastric once daily for 5 days, day 1.
[9] abbreviates: 48 h, read-out: survival rate of mice, day 2, 20 mg/kg intragastric once daily for 5 days, day 2.
Setting [10] is: 72 h, read-out: survival rate of mice, day 3, 20 mg/kg intragastric once daily for 5 days, day 3.
Where [11] appears, read: 96 h, read-out: survival rate of mice, day 4, 20 mg/kg intragastric once daily for 5 days, day 4.
Where [12] appears, read: 120 h, read-out: survival rate of mice, day 5, 20 mg/kg intragastric once daily for 5 days, day 5.
The mark [13] stands for this setting: 144 h, read-out: survival rate of mice, day 6, 20 mg/kg intragastric once daily for 5 days, day 6.
The mark [14] stands for this setting: 168 h, read-out: survival rate of mice, day 7, 20 mg/kg intragastric once daily for 5 days, day 7.
Setting [15] is: 24 h, read-out: survival rate of mice, day 1, 20 mg/kg tail vein once daily for 5 days, day 1.
Where [16] appears, read: 48 h, read-out: survival rate of mice, day 2, 20 mg/kg tail vein once daily for 5 days, day 2.
The mark [17] stands for this setting: 72 h, read-out: survival rate of mice, day 3, 20 mg/kg tail vein once daily for 5 days, day 3.
[18] abbreviates: 96 h, read-out: survival rate of mice, day 4, 20 mg/kg tail vein once daily for 5 days, day 4.
The mark [19] stands for this setting: 120 h, read-out: survival rate of mice, day 5, 20 mg/kg tail vein once daily for 5 days, day 5.
[20] abbreviates: 144 h, read-out: survival rate of mice, day 6, 20 mg/kg tail vein once daily for 5 days, day 6.
Where [21] appears, read: 168 h, read-out: survival rate of mice, day 7, 20 mg/kg tail vein once daily for 5 days, day 7.
Where [22] appears, read: 20 mg/kg tail vein once daily for 5 days.

For the compound `CC[C@@H]([C@H](C)O)n1ncn(-c2ccc(N3CCN(c4ccc(OC[C@@H]5CO[C@@](Cn6c[n+](C(C)OC(=O)N(C)c7ncccc7COC(=O)[C@@H](N)CCCN)cn6)(c6ccc(F)cc6F)C5)cc4)CC3)cc2)c1=O` (stereo partly drawn) [ST0007], in series [1] (20 mg/kg), the “vaginal fungal load of mice, day 15” value is recorded as 2.87 ± 0.24; the “vaginal fungal load of mice, day 3” value is listed as 4.35 ± 0.54; the “vaginal fungal load of mice, day 5” value turned out to be 4.47 ± 0.65; the “vaginal fungal load of mice, day 7” value turned out to be 4.23 ± 0.41. Moreover, the “vaginal fungal load of mice, day 11” value in series [1] (20 mg/kg) is reported as 3.81 ± 0.27. In series [2] (20 mg/kg), the “vaginal fungal load of mice, day 5” value worked out at 3.87 ± 0.31 and the “vaginal fungal load of mice, day 3” value was 4.08 ± 0.52. Moreover, the “Amount of active fungi in cornea at day 7” value (from here on “Amount of active fungi”) in series [3] is recorded as 1.87 ± 0.35 10^3 CFU/ml. Moreover, in series [4], the solubility at 30 min is above 50 mg/mL. Besides, the “survival rate of mice, day 1” value in series [5] (20 mg/kg tail vein once daily for 5 days, day 1) is reported as 100%. In addition, the “survival rate of mice, day 2” value in series [5] (20 mg/kg tail vein once daily for 5 days, day 2) is given as 100%. For the same compound, the “survival rate of mice, day 3” value in series [5] (20 mg/kg tail vein once daily for 5 days, day 3) stood at 100%. In addition, the “survival rate of mice, day 4” value in series [5] (20 mg/kg tail vein once daily for 5 days, day 4) is reported as 100%. Further, in series [5] (20 mg/kg tail vein once daily for 5 days, day 5), the “survival rate of mice, day 5” value came out at 90%. In addition, in series [5] (20 mg/kg tail vein once daily for 5 days, day 6), the “survival rate of mice, day 6” value came to 90%. The lung fungal load in series [5] (20 mg/kg tail vein once daily for 5 days, 20 mg/kg) was 1.68 ± 0.31 10^4 CFU/ml. In series [6] (20 mg/kg), the lung fungal load is 4.12 ± 0.87 10^4 CFU/ml.

`CC[C@@H]([C@H](C)O)n1ncn(-c2ccc(N3CCN(c4ccc(OC[C@@H]5CO[C@@](Cn6c[n+](C(C)OC(=O)N(C)c7ccccc7COC(=O)[C@@H](N)CCCN)cn6)(c6ccc(F)cc6F)C5)cc4)CC3)cc2)c1=O` (stereo partly drawn) [ST0008]: the “vaginal fungal load of mice, day 15” value in series [1] is 2.68 ± 0.18. For the same compound, the “vaginal fungal load of mice, day 3” value in series [1] is 4.21 ± 0.32; in series [2] it was 4.05 ± 0.25. In addition, the results for the “vaginal fungal load of mice, day 5” value in series [1] and in series [2] were 4.34 ± 0.47 and 3.86 ± 0.21, respectively. Further, in series [1], the “vaginal fungal load of mice, day 7” value came to 3.85 ± 0.35. Moreover, the “vaginal fungal load of mice, day 11” value in series [1] stood at 3.31 ± 0.29. For the same compound, the responders at 20 mg/kg in series [7] (setting [8]) worked out at 100%; in series [7] (setting [9]) it was 90%; in series [7] (setting [10]), 90%; in series [7] (setting [11]), 80%; in series [7] (setting [12]), 80%; in series [7] (setting [13]), 60%. Besides, the responders at 20 mg/kg was determined as 60% in series [7] (setting [14]); 100% in series [5] (setting [15]); 100% in series [5] (setting [16]); 100% in series [5] (setting [17]); 90% in series [5] (setting [18]); 80% in series [5] (setting [19]). For the same compound, the values for the responders at 20 mg/kg in series [5] (setting [20]) and in series [5] (setting [21]) were 80% and 70%, respectively. For the same compound, the “Amount of active fungi” value in series [3] is listed as 2.59 ± 0.37 10^3 CFU/ml. For the same compound, the solubility at 30 min in series [4] was above 50 mg/mL. The lung fungal load in series [5] (setting [22]) was 2.07 ± 0.42 10^4 CFU/ml; in series [6], 3.49 ± 0.64 10^4 CFU/ml.

Turning to `CC[C@@H]([C@H](C)OP(=O)(O)O)n1ncn(-c2ccc(N3CCN(c4ccc(OC[C@@H]5CO[C@@](Cn6c[n+](C(C)OC(=O)N(C)c7ncccc7COC(=O)[C@@H](N)CCCN)cn6)(c6ccc(F)cc6F)C5)cc4)CC3)cc2)c1=O` (stereo partly drawn) [ST0009], the “vaginal fungal load of mice, day 5” value in series [2] turned out to be 3.89 ± 0.54. Moreover, the “vaginal fungal load of mice, day 3” value in series [2] was 4.05 ± 0.23. Also, the “Amount of active fungi” value in series [3] is given as 2.76 ± 0.45 10^3 CFU/ml. For the same compound, the solubility at 30 min in series [4] is above 50 mg/mL. Further, the responders at 20 mg/kg in series [5] (setting [15]) turned out to be 100%; in series [5] (setting [16]), 100%; in series [5] (setting [17]), 100%; in series [5] (setting [18]), 90%; in series [5] (setting [19]), 80%; in series [5] (setting [20]), 80%. Moreover, the responders at 20 mg/kg in series [5] (setting [21]) was found to be 70%. Moreover, the values for the lung fungal load in series [5] (setting [22]) and in series [6] were 2.03 ± 0.46 10^4 CFU/ml and 3.91 ± 0.85 10^4 CFU/ml, respectively.

Consider `CC[C@@H]([C@H](C)OC(=O)[C@@H](N)CO)n1ncn(-c2ccc(N3CCN(c4ccc(OC[C@@H]5CO[C@@](Cn6c[n+](C(C)OC(=O)N(C)c7ncccc7COC(=O)[C@@H](N)CCCN)cn6)(c6ccc(F)cc6F)C5)cc4)CC3)cc2)c1=O` (stereo partly drawn) [ST0010], for which the “vaginal fungal load of mice, day 15” value in series [1] is given as 2.75 ± 0.41. Further, the “vaginal fungal load of mice, day 3” value in series [1] is listed as 4.21 ± 0.32. Also, in series [1], the “vaginal fungal load of mice, day 5” value was 4.38 ± 0.41. Also, in series [1], the “vaginal fungal load of mice, day 7” value was found to be 3.97 ± 0.55. Further, the “vaginal fungal load of mice, day 11” value in series [1] is 3.37 ± 0.28. The responders at 20 mg/kg in series [7] (setting [8]) came out at 100%; in series [7] (setting [9]), 100%; in series [7] (setting [10]) it was 90%; in series [7] (setting [11]), 70%; in series [7] (setting [12]), 70%; in series [7] (setting [13]) it was 60%. Moreover, the responders at 20 mg/kg in series [7] (setting [14]) came out at 60%; in series [5] (setting [15]), 100%; in series [5] (setting [16]) it was 100%; in series [5] (setting [17]), 90%; in series [5] (setting [18]) it was 80%; in series [5] (setting [19]), 80%. The responders at 20 mg/kg in series [5] (setting [20]) was 70%; in series [5] (setting [21]), 60%. Also, the “Amount of active fungi” value in series [3] is 3.93 ± 0.73 10^3 CFU/ml. In series [4], this compound gave a solubility at 30 min above 50 mg/mL. Besides, the lung fungal load in series [5] (setting [22]) was 2.75 ± 0.37 10^4 CFU/ml; in series [6], 3.40 ± 0.63 10^4 CFU/ml.
